pIC50: −log10 of the molar value. Activity calls are given as the source filed them. The calls are words filed in the database; no cut-off is given here.
Legend:
HT-29 = experiment: Cytotoxicity against human HT-29 cells assessed as cell viability at 1.563 to 50 uM measured after 72 hrs by plate reader method; format: functional, cell-based; conditions: for pIC50: HT-29, 72 h
HEK293 = experiment: Inhibition of Wnt signalling in HEK293 cells harbouring TCF/beta-catenin luciferase reporter gene assessed as TCF/beta-catenin transcriptional activity at 30 to 60 uM by TOPFlash luciferase assay; format: cell-based; conditions: Homo sapiens, dose 30-60 µM

`O=C1[C@H](Cc2ccc(O)cc2)N2C(=O)CCN(C(=O)NCc3ccccc3)[C@H]2CN1Cc1cccc2ccccc12` showed a pIC50 (HT-29) of 4.97.
With `COc1cc(/C=C/c2ccccc2)oc(=O)c1` the Activity (HEK293) was “inactive”.
In the case of `CC(C)[C@@H]1CC[C@@]2(C)C[C@@H]1c1c(cc(/C=C/c3ccccc3)oc1=O)O2`, the Activity (HEK293) was “Active” and the pIC50 (HT-29) was 4.49.
For `CC(C)[C@H]1CC[C@]2(C)C[C@H]1c1c(cc(/C=C/c3ccccc3)oc1=O)O2`, the Activity (HEK293) was “Active”.
With `Cc1cc2c(c(=O)o1)[C@H]1C[C@](C)(CC[C@H]1C(C)C)O2` the Activity (HEK293) was “Active”.
In the case of `CC(C)[C@H]1CC[C@@]2(C)C[C@@H]1c1c(cc(/C=C/c3cccs3)oc1=O)O2`, the Activity (HEK293) was “Active” and the Activity (HT-29; dose 1.563-50 µM) was “Active”.
`Cc1cc(O)cc(=O)o1` was tested, and the Activity (HEK293) was “inactive”.
For `CC1=CC(=O)C(C(C)C)CC1` (racemic), the Activity (HEK293) was “inactive”.
In the case of `Cc1cc2c(c(=O)o1)[C@H]1C[C@](C)(CC[C@@H]1C(C)C)O2`, the Activity (HEK293) was “Active”.
In the case of `COc1cc(O)c(C(=O)/C=C/c2ccccc2)c2c1[C@@H]1[C@@H](C(C)C)CC[C@](C)(O)[C@@H]1O2`, the Activity (HEK293) was “inactive”.
`CC(C)[C@H]1CC[C@@]2(C)C[C@@H]1c1c(cc(/C=C/c3ccccc3)oc1=O)O2` was tested, and the Activity (HEK293) was “Active” and the pIC50 (HT-29) was 5.09.
